According to patent US12054487B2, “Muscarinic acetylcholine M1 receptor antagonists” (Contineum Therapeutics, Inc., priority 2018, dated 2024):

Experiments:
Format in all cases: cell-based
human M1 receptor = molecular target: T1, human M1 receptor (Homo sapiens, UniProt P11229); test: In vitro functional assay of muscarinic acetylcholine receptor activity (aequorin calcium flux, antagonist mode vs EC80 acetylcholine), M1; conditions: CHO-K1 cells stably expressing human M1 receptor with Aequorin; decrease in EC80 acetylcholine response
T1 construct: host or cells: CHO-K1
T1 sequence (P11229 1-460): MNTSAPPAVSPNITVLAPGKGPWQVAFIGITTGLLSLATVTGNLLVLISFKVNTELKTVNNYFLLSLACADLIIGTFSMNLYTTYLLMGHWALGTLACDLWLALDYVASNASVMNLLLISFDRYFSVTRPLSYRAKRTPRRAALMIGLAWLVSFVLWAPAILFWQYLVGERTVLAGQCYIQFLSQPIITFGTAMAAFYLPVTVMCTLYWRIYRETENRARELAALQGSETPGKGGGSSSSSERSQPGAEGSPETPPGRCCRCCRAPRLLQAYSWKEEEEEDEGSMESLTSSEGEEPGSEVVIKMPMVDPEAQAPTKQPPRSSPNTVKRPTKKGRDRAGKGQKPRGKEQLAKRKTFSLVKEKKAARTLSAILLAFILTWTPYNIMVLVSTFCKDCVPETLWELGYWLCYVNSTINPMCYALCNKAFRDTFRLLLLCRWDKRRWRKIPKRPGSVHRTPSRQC
Experimental: (§1) CHO-K1 cells stably expressing human M1 receptor with Aequorin (Perkin Elmer) were grown in F12 media, 10% FBS with 0.4 mg/mL geneticin and […]. Cells were grown to confluence and frozen down to be assayed at a later date. On the day of the experiment cells were thawed in a 37° C. water bath, resuspended in DMEM/HAM's F12 with HEPES (Invitrogen)+0.1% protease-free BSA (assay buffer), and spun down to remove freezing media. After centrifugation, supernatant was removed and 12 mL of assay buffer was added. Coelenterazine h (Promega) was added to the cells at a final concentration of 5 uM and incubated for 4 hours at room temperature in the dark. Compound master plate-96 deep well (Corning) were formatted in a 8-point DRC in assay buffer with 0.2% DMSO at a starting concentration of 60 uM (2×). After 4 hours of incubation, cells were plated at a concentration of 5×10^5 cells/well in 96 well white-walled, tissue culture-treated, clear-bottom plates (VWR). Compounds were added to the daughter plate, and cells plus compound were incubated at room temperature for 30 minutes in the dark.
(§2) Calcium flux was measured using the FlexStation 3 (Molecular Devices). To measure the antagonist dose-response, the EC80 of Acetylcholine was injected to the daughter plate using the automated compound transfer function of the Flex Station, and the increase in luminescence was measured over time. Antagonist activity was analyzed as a concentration dependent decrease in the EC80 acetylcholine response. Dose response curves were generated using Prism (GraphPad Software). The IC50 of the compounds was calculated from the dose response curve.

M2 = molecular target: T2, M2 (Homo sapiens, UniProt P08172); test: In vitro functional assay of muscarinic acetylcholine receptor activity, M2; conditions: antagonist activity; M2 method not separately described
T2 sequence (P08172 1-466): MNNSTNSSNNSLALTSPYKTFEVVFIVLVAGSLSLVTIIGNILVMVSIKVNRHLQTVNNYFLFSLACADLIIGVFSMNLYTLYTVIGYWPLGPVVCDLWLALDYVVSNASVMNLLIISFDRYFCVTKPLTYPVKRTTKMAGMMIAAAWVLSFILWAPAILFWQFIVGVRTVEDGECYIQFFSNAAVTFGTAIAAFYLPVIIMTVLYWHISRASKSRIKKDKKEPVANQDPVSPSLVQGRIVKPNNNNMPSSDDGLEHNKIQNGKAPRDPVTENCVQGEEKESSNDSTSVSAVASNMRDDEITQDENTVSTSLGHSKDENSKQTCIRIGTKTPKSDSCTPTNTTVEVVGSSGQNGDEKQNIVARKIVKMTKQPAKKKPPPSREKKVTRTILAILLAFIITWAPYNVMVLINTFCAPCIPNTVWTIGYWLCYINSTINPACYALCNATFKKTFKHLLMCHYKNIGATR
Experimental: [The procedure below names another target; the source lists this target under the same test.] as §1, §2

M3 = M3 (Homo sapiens, UniProt P20309); test: In vitro functional assay of muscarinic acetylcholine receptor activity, M3; conditions: antagonist activity; M3 method not separately described
Experimental: [The procedure below names another target; the source lists this target under the same test.] as §1, §2

Chain of M3 (P20309 whole entry): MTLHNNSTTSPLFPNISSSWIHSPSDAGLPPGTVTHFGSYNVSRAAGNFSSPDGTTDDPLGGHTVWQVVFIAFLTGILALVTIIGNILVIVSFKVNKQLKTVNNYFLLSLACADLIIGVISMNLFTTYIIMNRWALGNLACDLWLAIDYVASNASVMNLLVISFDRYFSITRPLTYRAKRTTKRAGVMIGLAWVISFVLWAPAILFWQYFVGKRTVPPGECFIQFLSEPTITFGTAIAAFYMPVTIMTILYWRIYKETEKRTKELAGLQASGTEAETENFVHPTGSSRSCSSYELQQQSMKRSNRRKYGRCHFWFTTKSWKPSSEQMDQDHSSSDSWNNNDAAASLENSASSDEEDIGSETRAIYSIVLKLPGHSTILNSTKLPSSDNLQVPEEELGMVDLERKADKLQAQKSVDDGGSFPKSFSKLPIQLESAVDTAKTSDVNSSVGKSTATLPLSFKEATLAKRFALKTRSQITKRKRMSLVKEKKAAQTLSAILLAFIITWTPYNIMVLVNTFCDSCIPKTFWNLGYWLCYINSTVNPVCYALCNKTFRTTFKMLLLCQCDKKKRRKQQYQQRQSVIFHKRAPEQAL

| Structure (SMILES) | IC50 (human M1 receptor) | IC50 (M2) | IC50 (M3) |
| --- | --- | --- | --- |
| N#Cc1ccc(N2CCN3C(=O)[C@@H](CCCc4cccc5nccnc45)C[C@H]3C2)nc1 [Example 60, 6-((7S,8aS)-6-oxo-7-(3-(quinoxalin-5-yl)propyl)hexahydropyrrolo[1,2-a]pyrazin-2(1H)-yl)nicotinonitrile] | < 100 nM | < 100 nM | 100 to 1000 nM |
| O=C1[C@@H](CCCc2cccn3nccc23)C[C@H]2CN(c3ncc(F)cn3)CCN12 [Example 88, (7S,8aS)-2-(5-fluoropyrimidin-2-yl)-7-(3-(pyrazolo[1,5-a]pyridin-4-yl)propyl)hexahydropyrrolo[1,2-a]pyrazin-6(2H)-one] | < 100 nM | 1000 to 10000 nM | 1000 to 10000 nM |
| Cc1nccnc1CCC[C@H]1C[C@H]2CN(c3ccc(C#N)cn3)CCN2C1=O [Example 57, 6-((7S,8aS)-7-(3-(3-methylpyrazin-2-yl)propyl)-6-oxohexahydropyrrolo[1,2-a]pyrazin-2(1H)-yl)nicotinonitrile] | 1000 to 10000 nM | 1000 to 10000 nM | > 10000 nM |
| O=C1[C@@H](CCCc2cccn3ncnc23)C[C@H]2CN(c3ncccn3)CCN12 [Example 66, (7S,8aS)-7-(3-([1,2,4]triazolo[1,5-a]pyridin-8-yl)propyl)-2-(pyrimidin-2-yl)hexahydropyrrolo[1,2-a]pyrazin-6(2H)-one] | 100 to 1000 nM | > 10000 nM | > 10000 nM |
| O=C1C(CCCc2cccc3ncnn23)C[C@H]2CN(c3ccc(C(F)F)cn3)CCN12 (mixture of isomers) [Example 46, (8aS)-7-(3-([1,2,4]triazolo[1,5-a]pyridin-5-yl)propyl)-2-(5-(difluoromethyl)pyridin-2-yl)hexahydropyrrolo[1,2-a]pyrazin-6(2H)-one] | < 100 nM | 1000 to 10000 nM | 1000 to 10000 nM |
| O=C1C(CCCc2cccc3ncnn23)C[C@H]2CN(c3cncc(Cl)c3)CCN12 (mixture of isomers) [Example 44, (8aS)-7-(3-([1,2,4]triazolo[1,5-a]pyridin-5-yl)propyl)-2-(5-chloropyridin-3-yl)hexahydropyrrolo[1,2-a]pyrazin-6(2H)-one] | 1000 to 10000 nM | 1000 to 10000 nM | > 10000 nM |
| Cn1ncc2cccc(CCC[C@H]3C[C@H]4CN(c5ccc(C#N)cn5)CCN4C3=O)c21 [Example 55, 6-((7S,8aS)-7-(3-(1-methyl-1H-indazol-7-yl)propyl)-6-oxohexahydropyrrolo[1,2-a]pyrazin-2(1H)-yl)nicotinonitrile] | 100 to 1000 nM | 1000 to 10000 nM | 1000 to 10000 nM |
| N#Cc1ccc(N2CCN3C(=O)[C@@H](CCCc4cccn5nccc45)C[C@H]3C2)nc1 [Example 58, 6-((7S,8aS)-6-oxo-7-(3-(pyrazolo[1,5-a]pyridin-4-yl)propyl)hexahydropyrrolo[1,2-a]pyrazin-2(1H)-yl)nicotinonitrile] | < 100 nM | 100 to 1000 nM | 100 to 1000 nM |
| O=C1C(CCCc2cccc3ncnn23)C[C@H]2CN(c3ccc(F)cn3)CCN12 (mixture of isomers) [Example 41, (7S,8aS)-7-(3-([1,2,4]triazolo[1,5-a]pyridin-5-yl)propyl)-2-(5-fluoropyridin-2-yl)hexahydropyrrolo[1,2-a]pyrazin-6(2H)-one] | < 100 nM | 1000 to 10000 nM | 1000 to 10000 nM |
| O=C1[C@@H](CCCc2cccn3nccc23)C[C@H]2CN(c3ccc(F)cn3)CCN12 [Example 87, (7S,8aS)-2-(5-fluoropyridin-2-yl)-7-(3-(pyrazolo[1,5-a]pyridin-4-yl)propyl)hexahydropyrrolo[1,2-a]pyrazin-6(2H)-one] | 100 to 1000 nM | 1000 to 10000 nM | 1000 to 10000 nM |
| N#Cc1ccc(N2CCN3C(=O)[C@@H](CCCc4cccn5ccnc45)C[C@H]3C2)nc1 [Example 15] | 100 to 1000 nM | > 10000 nM | 1000 to 10000 nM |
| O=C1[C@@H](CCCc2cccc3ncsc23)C[C@H]2CN(c3ccncc3)CCN12 [Example 28, (7S,8aS)-7-(3-(benzo[d]thiazol-7-yl)propyl)-2-(pyridin-4-yl)hexahydropyrrolo[1,2-a]pyrazin-6(2H)-one] | < 100 nM | 100 to 1000 nM | 100 to 1000 nM |
| O=C1[C@@H](CCCc2cccc3ncnn23)C[C@H]2CN(c3ccc(C4CC4)cn3)CCN12 [Example 45, (8aS)-7-(3-([1,2,4]triazolo[1,5-a]pyridin-5-yl)propyl)-2-(5-cyclopropylpyridin-2-yl)hexahydropyrrolo[1,2-a]pyrazin-6(2H)-one] | < 100 nM | < 100 nM | 100 to 1000 nM |
| O=C1C(CCCc2cccc3ncsc23)CC2CN(c3ccncc3F)CCN12 (racemic) [Example 6, 7-(3-(benzo[d]thiazol-7-yl)propyl)-2-(3-fluoropyridin-4-yl)hexahydropyrrolo[1,2-a]pyrazin-6(2H)-one] | 100 to 1000 nM | 1000 to 10000 nM | > 10000 nM |
| COc1ccc(N2CCN3C(=O)C(CCCc4cccn5ncnc45)C[C@H]3C2)nc1 (mixture of isomers) [Example 72, (7S,8aS)-7-(3-([1,2,4]triazolo[1,5-a]pyridin-8-yl)propyl)-2-(5-methoxypyridin-2-yl)hexahydropyrrolo[1,2-a]pyrazin-6(2H)-one] | < 100 nM | 1000 to 10000 nM | 1000 to 10000 nM |
| O=C1C(CCCc2cccc3ncsc23)C[C@H]2CN(c3ccncc3F)CCN12 (mixture of isomers) [Example 9, (8aS)-7-(3-(benzo[d]thiazol-7-yl)propyl)-2-(3-fluoropyridin-4-yl)hexahydropyrrolo[1,2-a]pyrazin-6(2H)-one] | 100 to 1000 nM | 1000 to 10000 nM | > 10000 nM |
| O=C1[C@@H](CCCc2cccc3ncnn23)C[C@H]2CN(c3cccc(C(F)(F)F)n3)CCN12 [Example 31, (7S,8aS)-7-(3-([1,2,4]triazolo[1,5-a]pyridin-5-yl)propyl)-2-(6-(trifluoromethyl)pyridin-2-yl)hexahydropyrrolo[1,2-a]pyrazin-6(2H)-one] | 1000 to 10000 nM | > 10000 nM | > 10000 nM |
| O=C1[C@@H](CCCc2cccn3ncnc23)C[C@H]2CN(c3ccc(F)cc3F)CCN12 [Example 71, (7S,8aS)-7-(3-([1,2,4]triazolo[1,5-a]pyridin-8-yl)propyl)-2-(2,4-difluorophenyl)hexahydropyrrolo[1,2-a]pyrazin-6(2H)-one] | 1000 to 10000 nM | 1000 to 10000 nM | > 10000 nM |
| Cc1cnc(N2CCN3C(=O)[C@@H](CCCc4cccn5ncnc45)C[C@H]3C2)nc1 [Example 65, (7S,8aS)-7-(3-([1,2,4]triazolo[1,5-a]pyridin-8-yl)propyl)-2-(5-methylpyrimidin-2-yl)hexahydropyrrolo[1,2-a]pyrazin-6(2H)-one] | 100 to 1000 nM | 1000 to 10000 nM | > 10000 nM |
| N#Cc1ccc(N2CCN3C(=O)[C@@H](CCCc4cccc5nncn45)C[C@H]3C2)nc1 [Example 16, 6-((7S,8aS)-7-(3-([1,2,4]triazolo[4,3-a]pyridin-5-yl)propyl)-6-oxohexahydropyrrolo[1,2-a]pyrazin-2(1H)-yl)nicotinonitrile] | 100 to 1000 nM | 100 to 1000 nM | 100 to 1000 nM |
| O=C1[C@@H](CCCc2cccc3ncnn23)C[C@H]2CN(c3ccc(OC(F)F)cn3)CCN12 [Example 39, (7S,8aS)-7-(3-([1,2,4]triazolo[1,5-a]pyridin-5-yl)propyl)-2-(5-(difluoromethoxy)pyridin-2-yl)hexahydropyrrolo[1,2-a]pyrazin-6(2H)-one] | 100 to 1000 nM | > 10000 nM | 1000 to 10000 nM |
